“And” between values parts separate entries of the source, which are not always exact repeats. Equal values may be shown once.
Biological target: T1, Radiation Leukemia Virus reverse transcriptase (Radiation murine leukemia virus, UniProt P11227)
T1 construct: the reverse transcriptase of Radiation Leukemia Virus; endogenous in cells
Assay: Reverse transcriptase assay of Radiation Leukemia Virus from B10.T(6R) cell supernatants (Example 3)
Format: biochemical
Conditions: Table V; for CPM: replicate
Description: Supernatants (10 ml/tube) from B10.T(6R) cells (Meruelo et al. J. Exp. Med. 147: 470-487, 1978) chronically infected with Radiation Leukemia Virus (RadLV) were obtained by centrifugation of cells in culture at 4° C., 3500 rpm for 15 minutes. The top 2/3 of the supernatant were removed and aliquots were incubated for 30 minutes on ice with the indicated amounts of hypericin or protohypericin. […] Thereafter, supernatants were centrifuged at 100,000×g using a TI70 rotor (Beckman Instruments) for 1 hour at 4° C. The pellet was […] and analyzed for reverse transcriptase activity as follows.
The reverse transcriptase assay was performed in a volume of 100 microliters containing the following components:
The reverse transcriptase assay provides a measure of the antiviral activity of the compounds tested by reference to the observed decrease in activity of this enzyme.
In Table V, "CPM" is "counts per minute", "Average" is the numerical average of CPM values within each group of animals.

Cc1cc(O)c2c(=O)c3c(O)cc(O)c4c5c(O)cc(O)c6c(=O)c7c(O)cc(C)c8c1c2c(c34)c(c78)c65 [hypericin, Hypericin]
Average CPM (0.05 micrograms): 3,067 CPM
Average percent inhibition (0.05 micrograms): 98.5%
CPM (0.05 micrograms): 2,882 CPM and 3,252 CPM
Average CPM (0.1 micrograms): 2,333 CPM
Average percent inhibition (0.1 micrograms): 98.9%
CPM (0.1 micrograms): 1,668 CPM and 2,998 CPM
Average CPM (0.5 micrograms): 3,428.5 CPM
Average percent inhibition (0.5 micrograms): 98.4%
CPM (0.5 micrograms): 3,190 CPM and 3,667 CPM
Average CPM (1 microgram): 4,097 CPM
Average percent inhibition (1 microgram): 98.0%
CPM (1 microgram): 4,504 CPM and 3,690 CPM
Average CPM (5 micrograms): 11,778 CPM
Average percent inhibition (5 micrograms): 94.4%
CPM (5 micrograms): 12,224 CPM and 11,332 CPM
Average CPM (10 micrograms): 9,007 CPM
Average percent inhibition (10 micrograms): 95.7%
CPM (10 micrograms): 8,912 CPM and 9,102 CPM
Average CPM (50 micrograms): 4,575 CPM
Average percent inhibition (50 micrograms): 97.8%
CPM (50 micrograms): 5,434 CPM and 3,716 CPM
Average CPM (100 micrograms): 1,830 CPM
Average percent inhibition (100 micrograms): 99.0%
CPM (100 micrograms): 1,502 CPM and 2,158 CPM

From patent US6150414A, “Compositions and methods for treating viral infections” (priority 1992, dated 2000)
